Laboratory results reported in patent US20250101436A1, “APTAMERS AND SMALL MOLECULE LIGANDS” (MeiraGTx UK II Limited, priority 2021, published 2025).

Tested on: luciferase gene expression in HEK 293 cells in response to Comp. 004
Assay: Screen of riboswitch constructs with 12C6-1 variant aptamers (libraries N1-N5) against Comp. 004, luciferase in HEK 293 cells
Assay type: cell-based, human
Settings: library N5 variant aptamers (L5, X16-X21 randomized) of 12C6-1 in riboswitch constructs; in response to Comp. 004 treatment; HEK 293 cells
Method in brief: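 Riboswitch constructs carrying 12C6-1 aptamer variants, randomized in J2-4, J2-3/J3-3a/J3a-2/P3, L3a, J4-5/J5-4/P4 or L5 regions (libraries N1-N5), cloned into an intron-exon-intron cassette driving luciferase. Screened in HEK 293 cells with 25 µM Comp. 004; read-out is fold induction of gene expression versus parent Luci-12C6-1.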

| Substance | Fold (induction of luciferase gene expression) |
| --- | --- |
| N5_4D8 (CTGGGGAGTCCT; chemistry not given here) | 565.6 fold |
| N5_4H7 (CTGGGGAGTCCT; chemistry not given here) | 714.3 fold |
| N5_5B6 (CTGGGGAGTCCT; chemistry not given here) | 1068.3 fold |
| N5_5B7 (CTGGGGAGTCCT; chemistry not given here) | 1317.2 fold |
| N5_5C4 (CTGGGGAGTCCT; chemistry not given here) | 1235.2 fold |
| N5_5D7 (CTGGGGAGTCCT; chemistry not given here) | 769.4 fold |
| N5_5D9 (CTGGGGAGTCCT; chemistry not given here) | 712.5 fold |
| N5_5E4 (CTGGGGAGTCCT; chemistry not given here) | 1116.0 fold |
| N5_6A3 (CTGGGGAGTCCT; chemistry not given here) | 696.0 fold |
| N5_6A6 (CTGGGGAGTCCT; chemistry not given here) | 1024.4 fold |
| N5_6A8 (CTGGGGAGTCCT; chemistry not given here) | 1252.2 fold |
| N5_6B4 (CTGGGGAGTCCT; chemistry not given here) | 1435.7 fold |
| N5_6B6 (CTGGGGAGTCCT; chemistry not given here) | 659.7 fold |
| N5_6D12 (CTGGGGAGTCCT; chemistry not given here) | 2318.1 fold |
| N5_6E1 (CTGGGGAGTCCT; chemistry not given here) | 725.2 fold |
| N5_6E6 (CTGGGGAGTCCT; chemistry not given here) | 1032.8 fold |
| N5_6F4 (CTGGGGAGTCCT; chemistry not given here) | 1226.6 fold |
| N5_6F5 (CTGGGGAGTCCT; chemistry not given here) | 1665.4 fold |
| N5_6F6 (CTGGGGAGTCCT; chemistry not given here) | 953.0 fold |
| N5_6G6 (CTGGGGAGTCCT; chemistry not given here) | 1004.4 fold |
| N5_6G10 (CTGGGGAGTCCT; chemistry not given here) | 1262.0 fold |
| N5_6H10 (CTGGGGAGTCCT; chemistry not given here) | 1466.1 fold |
| N5_7A1 (CTGGGGAGTCCT; chemistry not given here) | 897.3 fold |
| N5_7A4 (CTGGGGAGTCCT; chemistry not given here) | 988.3 fold |

| Substance | Fold (induction of luciferase gene expression) |
| --- | --- |
| N5_7A5 (CTGGGGAGTCCT; chemistry not given here) | 785.5 fold |
| N5_7A6 (CTGGGGAGTCCT; chemistry not given here) | 314.5 fold |
| N5_7A7 (CTGGGGAGTCCT; chemistry not given here) | 1226.2 fold |
| N5_7A9 (CTGGGGAGTCCT; chemistry not given here) | 692.6 fold |
| N5_7A10 (CTGGGGAGTCCT; chemistry not given here) | 1108.5 fold |
| N5_7A11 (CTGGGGAGTCCT; chemistry not given here) | 941.2 fold |
| N5_7B1 (CTGGGGAGTCCT; chemistry not given here) | 2062.3 fold |
| N5_7B3 (CTGGGGAGTCCT; chemistry not given here) | 756.3 fold |
| N5_7B5 (CTGGGGAGTCCT; chemistry not given here) | 779.9 fold |
| N5_7B6 (CTGGGGAGTCCT; chemistry not given here) | 875.4 fold |
| N5_7B7 (CTGGGGAGTCCT; chemistry not given here) | 1046.3 fold |
| N5_7B8 (CTGGGGAGTCCT; chemistry not given here) | 693.7 fold |
| N5_7B10 (CTGGGGAGTCCT; chemistry not given here) | 1361.5 fold |
| N5_7B12 (CTGGGGAGTCCT; chemistry not given here) | 908.4 fold |
| N5_7C1 (CTGGGGAGTCCT; chemistry not given here) | 87.5 fold |
| N5_7C2 (DNA CTGGGGAGTCCT; chemistry not given here) | 627.0 fold |
| N5_7C3 (DNA CTGGGGAGTCCT; chemistry not given here) | 1258.4 fold |
| N5_7C4 (DNA CTGGGGAGTCCT; chemistry not given here) | 1363.2 fold |
| N5_7C7 (DNA CTGGGGAGTCCT; chemistry not given here) | 489.1 fold |
| N5_7C8 (DNA CTGGGGAGTCCT; chemistry not given here) | 1313.8 fold |
| N5_7C10 (CTGGGGAGTCCT; chemistry not given here) | 1090.7 fold |
| N5_7C11 (CTGGGGAGTCCT; chemistry not given here) | 459.9 fold |
| N5_7C12 (CTGGGGAGTCCT; chemistry not given here) | 628.9 fold |
| N5_7D1 (DNA CTGGGGAGTCCT; chemistry not given here) | 909.3 fold |

| Substance | Fold (induction of luciferase gene expression) |
| --- | --- |
| N5_7D2 (DNA CTGGGGAGTCCT; chemistry not given here) | 1114.3 fold |
| N5_7D3 (DNA CTGGGGAGTCCT; chemistry not given here) | 1075.7 fold |
| N5_7D4 (DNA CTGGGGAGTCCT; chemistry not given here) | 1144.9 fold |
| N5_7D5 (DNA CTGGGGAGTCCT; chemistry not given here) | 1182.3 fold |
| N5_7D6 (DNA CTGGGGAGTCCT; chemistry not given here) | 1210.5 fold |
| N5_7D7 (DNA CTGGGGAGTCCT; chemistry not given here) | 105.5 fold |
| N5_7D11 (DNA CTGGGGAGTCCT; chemistry not given here) | 759.2 fold |
| N5_7E1 (DNA CTGGGGAGTCCT; chemistry not given here) | 1733.0 fold |
| N5_7E2 (DNA CTGGGGAGTCCT; chemistry not given here) | 1234.5 fold |
| N5_7E5 (DNA CTGGGGAGTCCT; chemistry not given here) | 867.4 fold |
| N5_7E6 (DNA CTGGGGAGTCCT; chemistry not given here) | 1153.2 fold |
| N5_7E7 (DNA CTGGGGAGTCCT; chemistry not given here) | 870.2 fold |
| N5_7E8 (DNA CTGGGGAGTCCT; chemistry not given here) | 879.9 fold |
| N5_7E9 (DNA CTGGGGAGTCCT; chemistry not given here) | 955.3 fold |
| N5_7E11 (DNA CTGGGGAGTCCT; chemistry not given here) | 732.1 fold |
| N5_7E12 (DNA CTGGGGAGTCCT; chemistry not given here) | 933.3 fold |
| N5_7F1 (DNA CTGGGGAGTCCT; chemistry not given here) | 1744.2 fold |
| N5_7F2 (DNA CTGGGGAGTCCT; chemistry not given here) | 937.4 fold |
| N5_7F3 (DNA CTGGGGAGTCCT; chemistry not given here) | 1139.0 fold |
| N5_7F4 (DNA CTGGGGAGTCCT; chemistry not given here) | 1239.0 fold |
| N5_7F5 (DNA CTGGGGAGTCCT; chemistry not given here) | 1115.4 fold |
| N5_7F6 (DNA CTGGGGAGTCCT; chemistry not given here) | 898.5 fold |
| N5_7F8 (DNA CTGGGGAGTCCT; chemistry not given here) | 1279.7 fold |
| N5_7F9 (DNA CTGGGGAGTCCT; chemistry not given here) | 642.4 fold |
